Data as given in US10123996B2, “Macrocyclic lactone compounds and methods for their use” (Elixir Medical Corporation, priority 2006, dated 2018).
pIC50: −log10 of the molar value.

Assays:
Type in all cases: cell-based
[1] = system: IL-10 released by activated macrophages; experiment: cytokine inhibition in LPS-activated macrophages, ELISA: IL-10; conditions: 10 nM
Experimental: (§1) In cell culture studies, macrophages were activated to secrete cytokines such as 11-6, MMP-9, MCP-1 and IL-10 by treating the cells to E Coli lippopolysaccharide (LPS). Inhibition of these cytokines upon treatment of the activated macrophages with Compound AR and rapamycin with 10 nM concentration was tested using ELISA assay. The inhibition of pro-inflammatory and cell proliferation and migration inducing cytokines upon exposure to the macrocyclic lactone is presented in FIG. 12A. The inhibition of anti-inflammatory cytokine IL-10 upon exposure to macrocyclic lactone Compound AR and Sirolimus are presented in FIG. 12B.

[2] = system: human smooth muscle cells; experiment: in vitro human smooth muscle cell culture testing, incorporated thymidine (proliferation); conditions: for % Proliferation After One Hr Exposure: 1 hr exposure; for % Proliferation After Three Hr Exposure: 3 hr exposure; for % Proliferation After Eight Hr Exposure: 8 hr exposure; for pIC50: Homo sapiens
Experimental: The amounts of incorporated thymidine for samples of Compound AR of varying concentrations (0.005, 0.01, 0.05, 0.1, 0.5, and 1 μM) and of rapamycin of varying concentrations (0.0005, 0.001, 0.01, and 0.1 μM) were measured after exposure for different times of 1, 3 and 8 hours. The IC50 for Compound AR and rapamycin were approximately 0.05 and 0.01 μM, respectively, after smooth muscle cells were exposed to Compound AR and rapamycin for the shorter periods of 1 and 3 hours (as shown in Table 1 and FIG. 8). The IC50 of Compound AR and rapamycin was approximately 0.005 and 0.001 μM, respectively, after smooth muscle cells were exposure to Compound AR and rapamycin for 8 hours. The IC50 of Compound AR was approximately five times higher than that of rapamycin.
The amounts of incorporated thymidine for samples of 17, 18-29, 30-bis-epoxide macrocyclic lactone of varying concentrations (0.005, 0.01, 0.05, 0.1, 0.5, and 1 μM) and of Compound AR of varying concentrations (0.0005, 0.001, 0.01, and 0.1 μM) were measured after exposure for 8 hours. The IC50 of 17, 18-29, 30-bis-epoxide macrocyclic lactone and Compound AR was approximately 0.1 and 0.005 μM, respectively, after smooth muscle cells were exposed to 17, 18-29, 30-bis-epoxide macrocyclic lactone and Compound AR for 8 hours (FIG. 13). The IC50 of 17, 18-29, 30-bis-epoxide macrocyclic lactone was approximately 20 times higher than that of Compound AR.

[3] = system: MCP-1 released by activated macrophages; experiment: cytokine inhibition in LPS-activated macrophages, ELISA: MCP-1; conditions: 10 nM
Experimental: as §1

[4] = system: MMP-9 released by activated macrophages; experiment: cytokine inhibition in LPS-activated macrophages, ELISA: MMP-9; conditions: 10 nM
Experimental: as §1

[5] = system: IL-6 released by activated macrophages; experiment: cytokine inhibition in LPS-activated macrophages, ELISA: IL-6; conditions: 10 nM
Experimental: as §1

CO[C@@H]1C[C@H](C[C@@H](C)[C@@H]2CC(=O)[C@H](C)/C=C(\C)[C@@H](O)[C@@H](OC)C(=O)[C@H](C)C[C@H](C)/C=C/C=C/C=C(\C)C(O)C[C@@H]3CC[C@@H](C)C(O)(O3)C(=O)C(=O)N3CCCC[C@H]3C(=O)O2)CC[C@H]1O (stereo partly drawn) [Compound AR, 16-O-Demethyl Macrocyclic Lactone]
production of anti-inflammatory cytokine IL-10 [1]: inhibit the production | % Proliferation After One Hr Exposure ([2]; 0.005 micromolar): 84% | % Proliferation After Three Hr Exposure ([2]; 0.005 micromolar): 69% | % Proliferation After Eight Hr Exposure ([2]; 0.005 micromolar): 52% | % Proliferation After One Hr Exposure ([2]; 0.01 micromolar): 66% | % Proliferation After Three Hr Exposure ([2]; 0.01 micromolar): 56% | % Proliferation After Eight Hr Exposure ([2]; 0.01 micromolar): 38% | % Proliferation After One Hr Exposure ([2]; 0.05 micromolar): 54% | % Proliferation After Three Hr Exposure ([2]; 0.05 micromolar): 50% | % Proliferation After Eight Hr Exposure ([2]; 0.05 micromolar): 40% | % Proliferation After One Hr Exposure ([2]; 0.1 micromolar): 55% | % Proliferation After Three Hr Exposure ([2]; 0.1 micromolar): 52% | % Proliferation After Eight Hr Exposure ([2]; 0.1 micromolar): 36% | % Proliferation After One Hr Exposure ([2]; 0.5 micromolar): 57% | % Proliferation After Three Hr Exposure ([2]; 0.5 micromolar): 48% | % Proliferation After Eight Hr Exposure ([2]; 0.5 micromolar): 35% | pIC50 ([2]; smooth muscle cells exposed for 8 hours): ~8.30 | pIC50 ([2]; smooth muscle cells exposed for the shorter periods of 1 and 3 hours): ~7.30 | production of MCP-1 [3]: significantly reduced the production | production of MMP-9 [4]: significantly reduced the production | inhibition of release of IL-6 [5]: did not show and significant inhibition
